One data set has as its target T1, NaV1.7 (Homo sapiens, UniProt Q15858).
T1 construct: expressed in transfected cells; host or cells: HEK293 (tetracycline-inducible)
Briefly: Manual patch clamp, internal block of NaV1.7 current. It is filed as cell-based. The conditions noted are these: compound in internal solution, HEK293 cells, read-out: Nav1.7 Intracellular Inhibition; for inhibition at 10 µM: % inhibition at 10 μM test concentration; for inhibition at 3 µM: % inhibition at 3 μM test concentration. The method, then:
Representative compounds of the invention were synthesized according to the described methods and tested for the ability to inhibit voltage-gated sodium channels.
NaV1.7 was expressed in HEK293 cells upon induction with tetracycline. Cells were cultured in DMEM containing 10% dialyzed Fetal Bovine Serum (VWR, Radnor, Pa.), 1% Glutamax (VWR, Radnor, Pa.), 1% Penicillin-Streptomycin (VWR, Radnor, Pa.), 100 mg/L Hygromycin (Thermo Fisher Scientific, Waltham, Mass. and 5 mg/L Blasticidin (Alfa Aesar, Haverhill, Mass.). Cells were grown and maintained at 37° C. in a humidified environment containing 10% CO2 in air. Cells were detached from the culture flask for passage and harvested using 0.05% Trypsin-EDTA (Thermo Fisher Scientific, Waltham, Mass.). To induce NaV1.7, cells were induced with tetracycline (0.1-1 μg/mL, IBI Scientific, Peosta, Iowa) the day before recording and plated onto 24-well plates. Cells were washed with DPBS (VWR, Radnor, Pa.), trypsinized and then triturated five times in 10 mL of growth media to break apart cell aggregates. For one 24-well plate, 2 mL of cell suspension was mixed with 23 mL of fresh growth media and 0.1-1 μg/mL tetracycline added. 1 ml of mixed media with cells was then added to each well of a 24-well plate, with a 12 mm coverslip already placed in the bottom of the well. Cells were then incubated in 37° C. and 10% CO2 overnight.
The intracellular solution contained the following (in mM) CsCl 135, NaCl 10, EGTA 10, HEPES 10, MgCl2 2, adjusted to pH 7.2 with CsOH. The external solution was a normal Ringer solution containing (in mM) NaCl 155, HEPES 10, glucose 10, KCl 3.5, CaCl2 1.5, MgCl2 1 adjusted to pH 7.4 with NaOH. CsCl is from Alfa Aesar, Haverhill, Mass. All other chemicals are from Sigma-Aldrich, St. Louis, Mo. In order to test the degree of internal block by test compounds the compounds were dissolved in internal solution at the indicated test concentration. […] In order to test the degree of external block by test compounds the compounds were dissolved in external solution at the indicated test concentration.
18-24 hours after cells were induced with tetracycline, coverslips were placed into a chamber filled with Normal Ringer solution at room temperature and the chamber placed on a microscope. Pipettes were pulled from borosilicate glass on a P97 puller (Sutter Instrument, Novato, Calif.) and polished with a MF-830 Microforge (Narishige International USA, Inc., Amityville, N.Y.) to have a resistance of 1.5-2.5 MΩ when filled with CsCl internal solution at room temperature. Healthy cells (those that are round and translucent with no visible blemishes) were chosen for seal formation. A seal was formed between the pipette and the cell, and a brief pulse of suction was used to “break in” and establish the whole-cell configuration. The membrane potential was held at −100 mV before the voltage protocol began. Only cells with series resistance between 1.5-5 MΩ were retained for analysis. The voltage protocol was as follows: Cells were held at −100 mV for 12 ms followed by a hyperpolarizing step to −105 mV for 12 ms to monitor the leak. Cells were then stepped back to −100 mV for 40 ms. Cells were then depolarized to −20 mV for 10 ms and then returned to −100 mV for 26 ms.
Once the recording was started, the voltage protocol was run at 30 second intervals for 5 minutes to get a stable baseline. This was followed by four 30-second periods of 5 Hz stimulation of the same voltage protocol separated by 1 minute of rest which was then followed by 0.33 Hz stimulation after the last train. Currents were recorded using PatchMaster software with Heka EPC10 (HEKA Electronics, Lambrecht, Germany). Only cells with inward current amplitudes at −20 mV between 400 pA and 4 nA were accepted. In addition, cells having leak currents greater than 10% of their current amplitudes were discarded. […]

Data set [1] is described as follows: PAMPA membrane permeability assay. Type of data set: in vitro ADME. The conditions noted are these: permeability coefficient, pH 7.4 buffer, GIT lipid, 4 hours incubation. The method, then: The PAMPA assay (pION, Inc., Woburn Mass.) was used to determine the ability of compounds of the invention to cross an artificial lipid membrane by passive diffusion. Test compounds were dissolved in DMSO (10 mM) and diluted 200-fold in buffer (pION Inc., pH 7.4) to provide 50 uM stock solutions. Buffer (150 μL) was added to a UV blank plate and stock solutions (150 μL) were transferred to a UV reference plate. The blank and reference spectrum were read using a spectrophotometer. Stock solutions (200 μL) were added to the donor plate of the PAMPA sandwich plate and an accept plate painted with GIT lipid (pION Inc, 5) was placed on top. Buffer (200 μL) was added to the acceptor plate and the PAMPA sandwich plate was incubated for 4 hours. Aliquots (150 μL) from the acceptor plate were added to a UV plate and read as acceptor spectrum. Aliquots (150 μL) of the donor solutions were added to a UV analysis plate and read as donor spectrum. The permeability coefficient of test compounds was calculated using PAMPA Explorer™ software (version 3.5.0.4) based on the AUC of the reference plate, the donor plate, and the acceptor plate.
The PAMPA permeability results (10^−6 cm/s) of representative compounds are reported as “+” (<0.1 10^−6 cm/s), “++” (0.1-2.0 10^−6 cm/s), “+++” (2.0-10.010^−6 cm/s) or “++++” (>10.0 10^−6 cm/s).

We go through 24 compounds from patent publication US11603355B2, “Charged ion channel blockers and methods for use” (Nocion Therapeutics, Inc., priority 2019, dated 2023).

By inhibition is commonly meant the percentage by which the read-out fell short of the control.

T1 sequence (Q15858 whole entry): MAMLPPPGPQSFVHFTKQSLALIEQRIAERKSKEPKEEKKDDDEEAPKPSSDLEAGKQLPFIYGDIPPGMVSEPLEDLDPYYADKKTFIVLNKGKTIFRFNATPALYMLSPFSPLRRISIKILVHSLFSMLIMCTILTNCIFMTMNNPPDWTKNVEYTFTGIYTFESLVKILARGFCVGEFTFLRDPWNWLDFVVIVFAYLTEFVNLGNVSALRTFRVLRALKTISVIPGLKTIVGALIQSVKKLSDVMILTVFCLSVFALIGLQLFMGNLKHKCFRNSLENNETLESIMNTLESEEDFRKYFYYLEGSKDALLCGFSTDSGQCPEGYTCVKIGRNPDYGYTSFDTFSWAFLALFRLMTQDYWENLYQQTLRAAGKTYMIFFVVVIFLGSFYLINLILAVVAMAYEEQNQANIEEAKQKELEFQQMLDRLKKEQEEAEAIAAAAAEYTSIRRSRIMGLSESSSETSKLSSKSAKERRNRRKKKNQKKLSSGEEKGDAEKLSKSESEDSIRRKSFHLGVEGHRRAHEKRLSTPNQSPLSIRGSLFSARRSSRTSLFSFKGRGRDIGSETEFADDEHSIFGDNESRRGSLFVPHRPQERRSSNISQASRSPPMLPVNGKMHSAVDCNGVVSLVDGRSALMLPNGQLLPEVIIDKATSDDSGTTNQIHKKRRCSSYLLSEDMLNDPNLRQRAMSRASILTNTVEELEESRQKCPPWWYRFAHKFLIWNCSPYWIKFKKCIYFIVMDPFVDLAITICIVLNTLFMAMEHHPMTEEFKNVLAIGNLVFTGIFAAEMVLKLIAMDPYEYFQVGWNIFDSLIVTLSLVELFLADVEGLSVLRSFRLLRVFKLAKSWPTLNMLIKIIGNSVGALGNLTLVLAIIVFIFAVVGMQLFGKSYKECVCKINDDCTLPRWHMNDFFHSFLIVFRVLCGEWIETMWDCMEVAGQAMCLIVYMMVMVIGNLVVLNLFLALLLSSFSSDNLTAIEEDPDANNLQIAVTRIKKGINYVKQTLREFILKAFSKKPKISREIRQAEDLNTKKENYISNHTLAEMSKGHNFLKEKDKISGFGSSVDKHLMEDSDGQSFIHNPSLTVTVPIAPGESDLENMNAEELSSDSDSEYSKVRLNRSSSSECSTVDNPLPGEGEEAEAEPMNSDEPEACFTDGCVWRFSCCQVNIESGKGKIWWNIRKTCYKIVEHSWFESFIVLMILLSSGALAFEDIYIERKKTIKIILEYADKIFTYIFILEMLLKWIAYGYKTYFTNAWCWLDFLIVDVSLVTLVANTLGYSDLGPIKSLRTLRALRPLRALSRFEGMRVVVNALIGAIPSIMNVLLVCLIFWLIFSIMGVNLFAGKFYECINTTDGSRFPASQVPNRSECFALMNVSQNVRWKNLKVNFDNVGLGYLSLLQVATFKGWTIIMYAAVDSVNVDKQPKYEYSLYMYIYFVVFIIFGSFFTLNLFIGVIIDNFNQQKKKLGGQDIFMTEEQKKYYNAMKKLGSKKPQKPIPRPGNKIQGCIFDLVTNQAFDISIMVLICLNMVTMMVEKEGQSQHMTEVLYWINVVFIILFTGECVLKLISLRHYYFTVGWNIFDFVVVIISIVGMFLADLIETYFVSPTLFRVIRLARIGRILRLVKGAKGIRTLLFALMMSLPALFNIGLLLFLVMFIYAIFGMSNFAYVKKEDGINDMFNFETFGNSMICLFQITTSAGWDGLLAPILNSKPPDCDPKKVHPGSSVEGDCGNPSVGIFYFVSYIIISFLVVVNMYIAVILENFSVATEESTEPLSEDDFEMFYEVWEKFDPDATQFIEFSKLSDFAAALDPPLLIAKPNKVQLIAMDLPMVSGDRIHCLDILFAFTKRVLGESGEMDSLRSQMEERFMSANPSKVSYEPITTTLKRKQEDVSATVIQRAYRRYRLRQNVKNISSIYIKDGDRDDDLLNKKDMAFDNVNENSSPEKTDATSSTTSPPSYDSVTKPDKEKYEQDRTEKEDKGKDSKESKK

As for `CCC(C(=O)Nc1c(C)cccc1C)[N+]1(Cc2ccc(Cl)cc2)CCCCC1` (centres unmarked) [Compound 10A], on NaV1.7, the inhibition at 10 µM lay in the range of 70 to 95%. The “PAMPA (10^−6 cm/s)” value in data set [1] is on record as “+ (“+” (<0.1 10^−6 cm/s))”.

In the case of `CC[N+](CC)(CC(=O)Nc1c(C)cccc1C)Cc1ccccc1` [Compound 1A, N-benzyl-2-((2,6-dimethylphenyl)amino)-N,N-diethyl-2-oxoethan-1-aminium bromide], the inhibition at 10 µM at NaV1.7 lay in the range of 70 to 95%.

Regarding `Cc1cccc(C)c1NC(=O)C[N+](C)(C)Cc1ccccc1` [Compound 2A, N-benzyl-2-((2,6-dimethylphenyl)amino)-N,N-dimethyl-2-oxoethan-1-aminium bromide], the inhibition at 10 µM on NaV1.7 was 40 to 70%. In addition, the “PAMPA (10^−6 cm/s)” value in data set [1] is “+ (“+” (<0.1 10^−6 cm/s))”. For the compound `CCC(C(=O)Nc1c(C)cccc1C)[N+]1(Cc2cnn(C)c2)CCCCC1.[Br-]` (centres unmarked) [Compound 34A, 1-(1-((2,6-dimethylphenyl)amino)-1-oxobutan-2-yl)-1-((1-methyl-1H-pyrazol-4-yl)methyl) piperidin-1-ium bromide], the inhibition at 3 µM on NaV1.7 was 70 to 90%. Also, the “PAMPA (10^−6 cm/s)” value in data set [1] is reported as “+ (“+” (<0.1 10^−6 cm/s))”. Take `CCC(C(=O)Nc1c(C)cccc1C)[N+]1(Cc2ccccc2C)CCCCC1` (centres unmarked) [Compound 18A]: on NaV1.7, the inhibition at 10 µM lay in the range of 70 to 95%. The “PAMPA (10^−6 cm/s)” value in data set [1] is reported as “+ (“+” (<0.1 10^−6 cm/s))”. Regarding `CCC(C(=O)Nc1c(C)cccc1C)[N+]1(Cc2cccc(F)c2)CCCCC1` (centres unmarked) [Compound 8A], the inhibition at 10 µM on NaV1.7 was 70 to 95%. For the same compound, the “PAMPA (10^−6 cm/s)” value in data set [1] was “+ (“+” (<0.1 10^−6 cm/s))”. With `CCC(C(=O)Nc1c(C)cccc1C)[N+]1(Cc2cccc(OC)c2)CCCCC1` (centres unmarked) [Compound 23A, 1-(1-((2,6-dimethylphenyl)amino)-1-oxobutan-2-yl)-1-(3-methoxybenzyl) piperidin-1-ium bromide], the inhibition at 10 µM on NaV1.7 fell in the range of 70 to 95%. Besides, the “PAMPA (10^−6 cm/s)” value in data set [1] is on record as “+ (“+” (<0.1 10^−6 cm/s))”.

As for `CCc1ccccc1C[N+]1(C(CC)C(=O)Nc2c(C)cccc2C)CCCCC1` (centres unmarked) [Compound 21A], on NaV1.7, the inhibition at 3 µM is over 90% and the inhibition at 10 µM is over 95%. In data set [1], the “PAMPA (10^−6 cm/s)” value is recorded as “+ (“+” (<0.1 10^−6 cm/s))”. `CCCCN(C(=O)OC(C)(C)C)c1ccc(NC(=O)C[N+]2(Cc3ccccc3)CCCCCC2)cc1` [Compound 40A, 1-benzyl-1-(2-((4-((tert-butoxycarbonyl) (butyl)amino)phenyl)amino)-2-oxoethyl) azepan-1-ium bromide]: at NaV1.7, the inhibition at 10 µM was 40 to 70%. Take `Cc1cccc(C)c1N1CCCC([N+]2(Cc3ccccc3)CCCCCC2)C1=O` (centres unmarked) [Compound 93A]: the inhibition at 3 µM at NaV1.7 lay in the range of 70 to 90%. Besides, the “PAMPA (10^−6 cm/s)” value in data set [1] is “+ (“+” (<0.1 10^−6 cm/s))”.

Consider `CCC(C(=O)Nc1c(C)cccc1C)[N+]1(Cc2cccc(Cl)c2)CCCCC1` (centres unmarked) [Compound 11A], for which the inhibition at 10 µM on NaV1.7 is over 95%. As for `CCc1ccc(C[N+]2(C(CC)C(=O)Nc3c(C)cccc3C)CCCCC2)cc1` (centres unmarked) [Compound 19A], the inhibition at 10 µM at NaV1.7 lay in the range of 40 to 70%. Also, the “PAMPA (10^−6 cm/s)” value in data set [1] is “+ (“+” (<0.1 10^−6 cm/s))”.

Turning to `CCCCNc1cc(C)c(NC(=O)C(CC)[N+]2(Cc3ccccc3)CCCCC2)c(C)c1` (centres unmarked) [Compound 43A, 1-benzyl-1-(1-((4-(butylamino)-2,6-dimethylphenyl)amino)-1-oxobutan-2-yl) piperidin-1-ium carbonate], at NaV1.7, the inhibition at 10 µM is 70 to 95%. On to `CCC(C(=O)Nc1c(C)cccc1C)[N+]1(Cc2ccc(C#N)cc2)CCCCC1` (centres unmarked) [Compound 13A], for which the inhibition at 10 µM at NaV1.7 is 70 to 95%. The “PAMPA (10^−6 cm/s)” value in data set [1] is recorded as “+ (“+” (<0.1 10^−6 cm/s))”. For `CCC(C(=O)Nc1c(C)cccc1C)[N+]1(Cc2cc(C)on2)CCCCC1` (centres unmarked) [Compound 27A], in that order: 70 to 95% and “+ (“+” (<0.1 10^−6 cm/s))”. The like results for `CCC(C(=O)Nc1c(C)cccc1C)[N+]1(Cc2ccccc2Cl)CCCCC1` (centres unmarked) [Compound 12A] were, in that order, over 95% and “+ (“+” (<0.1 10^−6 cm/s))”. As to `Cc1cccc(C)c1NC(=O)C[N+]1(Cc2ccccc2)CCCCCCC1.[Br-]` [Compound 31A, 1-benzyl-1-(2-((2,6-dimethylphenyl)amino)-2-oxoethyl)azocan-1-ium bromide], on NaV1.7, the inhibition at 3 µM was over 90% and the inhibition at 10 µM was over 95%. Besides, in data set [1], the “PAMPA (10^−6 cm/s)” value is “+ (“+” (<0.1 10^−6 cm/s))”. With `CCC(C(=O)Nc1c(C)cc(C)cc1C)[N+]1(Cc2ccccc2)CCCCC1.[Br-]` (centres unmarked) [Compound 39A, 1-benzyl-1-(1-(mesitylamino)-1-oxobutan-2-yl) piperidin-1-ium bromide], on NaV1.7, the inhibition at 10 µM fell in the range of 70 to 95%. For the same compound, the “PAMPA (10^−6 cm/s)” value in data set [1] is listed as “+ (“+” (<0.1 10^−6 cm/s))”. With `CCC(C(=O)Nc1c(C)cccc1C)[N+]1(Cc2ccccc2OC)CCCCC1` (centres unmarked) [Compound 24A, 1-(1-((2,6-dimethylphenyl)amino)-1-oxobutan-2-yl)-1-(2-methoxybenzyl) piperidin-1-ium bromide], at NaV1.7, the inhibition at 3 µM is over 90% and the inhibition at 10 µM was over 95%. As for `CCC(C(=O)Nc1c(C)cccc1C)[N+]1(Cc2ccc(OC)cc2)CCCCC1` (centres unmarked) [Compound 22A], on NaV1.7, the inhibition at 3 µM was in the range of 70 to 90% and the inhibition at 10 µM fell in the range of 70 to 95%. For the compound `CCC(C(=O)Nc1c(C)cccc1C)[N+]1(Cc2cnc(C)s2)CCCCC1` (centres unmarked) [Compound 25A], the inhibition at 10 µM on NaV1.7 lay within 40 to 70%. `CCCCNc1ccc(NC(=O)C[N+]2(Cc3ccccc3)CCCCC2)cc1.O=C([O-])O` [Compound 42A, 1-benzyl-1-(2-((4-(butylamino)phenyl)amino)-2-oxoethyl) piperidin-1-ium carbonate]: in data set [1], the “PAMPA (10^−6 cm/s)” value is reported as “++ (“++” (0.1-2.0 10^−6 cm/s))”.

For `CCC(C(=O)Nc1c(C)cccc1C)[N+]1(Cc2ccccc2O)CCCCC1` (centres unmarked) [Compound 28A, 1-(1-((2,6-dimethylphenyl)amino)-1-oxobutan-2-yl)-1-(2-hydroxybenzyl) piperidin-1-ium 2,2,2-trifluoroacetate], on NaV1.7, the inhibition at 3 µM was under 40% and the inhibition at 10 µM fell in the range of 40 to 70%.

With `CCC(C(=O)Nc1c(C)cccc1C)[N+]1(Cc2cccc(O)c2)CCCCC1` (centres unmarked) [Compound 29A, 1-(1-((2,6-dimethylphenyl)amino)-1-oxobutan-2-yl)-1-(3-hydroxybenzyl) piperidin-1-ium carbonate], at NaV1.7, the inhibition at 3 µM is over 90% and the inhibition at 10 µM was 70 to 95%.
